We go through 76 compounds from patent US12590094B2, “Compounds for the treatment of neurodegenerative and metabolic disorders” (UNIVERSITY OF FLORIDA RESEARCH FOUNDATION, INCORPORATED, priority 2019, dated 2026).

Some results are limits rather than exact numbers.

One experiment concerns PK1 neuroblastoma cells treated with TPrP. The experiment in a line: cells. The class given is cell-based.
Details: not given
Turning to `COc1cc2nccc(Oc3ccc(NC(=O)NC4CC4)c(Cl)c3)c2cc1C(N)=O` [lenvatinib, reference compound], the “neuroprotective activity in the TPrP assay” value is “entirely lacked neuroprotective activity”.
Same read-out and setting: as for `CNC(=O)c1cc(Oc2ccc(NC(=O)Nc3ccc(Cl)c(C(F)(F)F)c3)cc2)ccn1` [sorafenib, reference compound], the entry is “entirely lacked neuroprotective activity”; as for `COc1cc2nccc(Oc3ccc(NC(=O)Nc4cc(C)on4)c(Cl)c3)c2cc1OC` [tivozanib, reference compound], “entirely lacked neuroprotective activity”.

Staying with this experiment, now noted: Neuroblastoma cell, read-out: Viability EC50.
As for `COc1cc(OC)c2cc(-c3ccncc3)cnc2c1` [DMPQ], the concentration giving a half-maximal response (EC50) was 505 nM.
In the case of `NS(=O)(=O)c1ccc(Nc2nc(-c3cc4ccccc4oc3=O)cs2)cc1` [SR1-22833], the concentration giving a half-maximal response (EC50) was determined as 57 nM.
For the compound `CC1=C[C@@H]2c3cccc4[nH]cc(c34)C[C@H]2N(C)C1` [SR1-75354, agroclavine], the EC50 stood at 1600 nM.
Still for that read-out and setting: next, `CNC(=O)c1cc2c(cn1)[nH]c1ccccc12` [SR1-75632, N-methyl-9H-pyrido[3,4-b]indole-3-carboxamide]: 3200 nM.

A further experiment shares this test system. Kind of experiment: cells. The following applies: Neuroblastoma cell, read-out: NAD EC50. The experiment is classed as cell-based.
For the compound `COc1cc(OC)c2cc(-c3ccncc3)cnc2c1` [DMPQ], the EC50 turned out to be 5500 nM.
Take `NS(=O)(=O)c1ccc(Nc2nc(-c3cc4ccccc4oc3=O)cs2)cc1` [SR1-22833]: the EC50 amounted to 245 nM.
Take `CC1=C[C@@H]2c3cccc4[nH]cc(c34)C[C@H]2N(C)C1` [SR1-75354, agroclavine]: the EC50 came out at 2000 nM.
`CNC(=O)c1cc2c(cn1)[nH]c1ccccc12` [SR1-75632, N-methyl-9H-pyrido[3,4-b]indole-3-carboxamide]: the EC50 was over 15000 nM.

The next experiment relates to Cells exposed to TPrP. The experiment in a line: cells. The following applies: read-out: Viability EC50.
In the case of `COc1ccc(-c2cc(C(C)(C)C)n3ncc(C(=O)NCCCn4ccnc4)c3n2)cc1` [SR0-28464], the EC50 was 1.2 nM.
Regarding `COc1ccc(-c2cc(C(F)(F)F)n3ncc(C(=O)NCCCn4ccnc4C(F)(F)F)c3n2)cc1` [SR0-28466], the concentration for a half-maximal effect (EC50) was determined as 20 nM.
The same measure, in the same setting: as for `COc1ccc(-c2cc(C(F)(F)F)n3ncc(C(=O)NCCCn4ccnc4F)c3n2)cc1` [SR0-28467], the figure is 16 nM; as for `CCc1nccn1CCCNC(=O)c1cnn2c(C(F)(F)F)cc(-c3ccc(OC)cc3)nc12` [SR0-29244], 25 nM; as for `CCOc1ccc(-c2cc(C)n3ncc(C(=O)NCCCn4ccnc4C)c3n2)cc1` [SR0-29245], 1.2 nM.
Turning to `Cc1nccn1CCCNC(=O)c1cnn2c(C)cc(-c3ccc(OC(F)(F)F)cc3)nc12` [SR0-29246], the EC50 turned out to be 2 nM.
The same measure, in the same setting: next, `Cc1nccn1CCCNC(=O)c1cnn2c(C)cc(-c3ccc4c(c3)OCO4)nc12` [SR0-29247]: 2.2 nM.
As to `COc1cc(-c2cc(C)n3ncc(C(=O)NCCCn4ccnc4C)c3n2)cc(OC)c1OC` [SR0-29248], the EC50 was determined as 4 nM.
On the same count and under the same terms, next, `COc1ccc(-c2cc(N3CCCC3)n3ncc(C(=O)NCCCn4ccnc4C)c3n2)cc1` [SR0-29249]: 2.2 nM.
For `COc1ccc(-c2cc(C(F)(F)F)n3nc(C)c(C(=O)NCCCn4ccnc4C)c3n2)cc1` [SR0-29250], the EC50 amounted to 3.6 nM.
The same measure, in the same setting: as for `Cc1nccn1CCCNC(=O)c1cnn2c(C(C)(C)C)cc(-c3ccc4c(c3)OCO4)nc12` [SR0-31104], the figure is 10 nM; as for `Cc1c(-c2ccc3c(c2)OCO3)nc2c(C(=O)NCCCn3ccnc3C)cnn2c1C` [SR0-31106], 30 nM; as for `Cc1cc(-c2ccc3c(c2)OCO3)nc2c(C(=O)NCCCn3ccnc3S(C)(=O)=O)cnn12` [SR0-31110], over 50 nM.
On the same count and under the same terms, next, `COc1ccc(-c2cc(C)n3ncc(C(=O)NCCCn4ccnc4)c3n2)cc1` [SR3-5170]: 1 nM; `COCc1cc(-c2ccc(OC)cc2)nc2c(C(=O)NCCCn3ccnc3)cnn12` [SR3-5250]: 0.5 nM.
The same measure, in the same setting: as for `COc1ccc(-c2cc(C(F)(F)F)n3ncc(C(=O)NCCn4ccnc4)c3n2)cc1` [SR3-5290], the figure is over 32 nM; as for `CCc1cc(-c2ccc(OC)cc2)nc2c(C(=O)NCCCn3ccnc3)cnn12` [SR3-5310], 0.6 nM.
As for `COc1ccc(-c2cc(C(C)C)n3ncc(C(=O)NCCCn4ccnc4)c3n2)cc1` [SR3-5311], the EC50 worked out at 0.4 nM.
For the compound `COc1ccc(-c2cc(C(F)(F)F)n3ncc(C(=O)NCCCCn4ccnc4)c3n2)cc1` [SR3-5312], the EC50 was found to be 6 nM.
Still for that read-out and setting: next, `COc1ccc(-c2cc(C(F)(F)F)n3ncc(C(=O)NCCCn4cnc5ccccc54)c3n2)cc1` [SR3-5313]: over 16 nM; `COc1ccc(-c2cc(C(F)(F)F)n3ncc(C(=O)N(C)CCCn4ccnc4)c3n2)cc1` [SR3-5314]: over 16 nM.
Still for that read-out and setting: next, `CCOC(=O)c1c(CC)ncc2[nH]c3cc(OC)c(OC)cc3c12` [SR26084]: about 10000 nM.
The same measure, in the same setting: next, `CCc1c(C(=O)O)ncc2[nH]c3cc(OC)c(OC)cc3c12` [SR26266]: over 4000 nM.
For `CN(C)S(=O)(=O)c1ccc(Nc2nc(-c3ccncc3)cs2)cc1` [SR-27744], the EC50 is 60 nM.
The same measure, in the same setting: as for `Cc1nc(C)c(-c2csc(Nc3ccc(S(=O)(=O)N(C)C)cc3)n2)s1` [SR-27764], the figure is 70 nM; as for `CCNS(=O)(=O)c1ccc(Nc2nc(-c3ccncc3)cs2)cc1` [SR-27784], 60 nM; as for `CCNS(=O)(=O)c1ccc(Nc2nc(-c3sc(C)nc3C)cs2)cc1` [SR-27785], 500 nM.
The same measure, in the same setting: as for `CCCNS(=O)(=O)c1ccc(Nc2nc(-c3ccncc3)cs2)cc1` [SR-27804], the figure is 170 nM.
Same read-out and setting: as for `CCCNS(=O)(=O)c1ccc(Nc2nc(-c3sc(C)nc3C)cs2)cc1` [SR-27805], the figure is over 500 nM; as for `CNS(=O)(=O)c1ccc(Nc2nc(-c3ccncc3)cs2)cc1` [SR-27806], 60 nM.
Consider `CCCCNS(=O)(=O)c1ccc(Nc2nc(-c3ccncc3)cs2)cc1` [SR-27808], for which the EC50 turned out to be 170 nM.
Same read-out and setting: as for `CCCCNS(=O)(=O)c1ccc(Nc2nc(-c3sc(C)nc3C)cs2)cc1` [SR-27809], the figure is over 500 nM; as for `c1ccc2c(c1)CCC2Nc1nnc(Cc2ccncc2)c2ccccc12` (centres unmarked) [SR-27884], 500 nM; as for `c1ccc2c(c1)CC(Nc1nnc(Cc3ccncc3)c3ccccc13)C2` [SR-27885], 200 nM.
Take `COc1ccc(CNc2nnc(Cc3ccncc3)c3ccccc23)cc1OC` [SR-27886]: the EC50 came to 140 nM.
With `c1ccc2[nH]c(CNc3nnc(Cc4ccncc4)c4ccccc34)nc2c1` [SR-27887], the EC50 is 200 nM.
With `c1ccc2oc(CNc3nnc(Cc4ccncc4)c4ccccc34)nc2c1` [SR-27888], the concentration for a half-maximal effect (EC50) was found to be 45 nM.
In the case of `c1ccc2c(c1)CC(Nc1nnc(Cc3ccncc3)c3ccccc13)CO2` (centres unmarked) [SR-27889], the EC50 stood at 200 nM.
Turning to `c1ccc2c(c1)CC(CNc1nnc(Cc3ccncc3)c3ccccc13)CO2` (centres unmarked) [SR-27890], the 50% effective concentration (EC50) was 140 nM.
Same read-out and setting: next, `c1ccc2c(c1)OCCC2Nc1nnc(Cc2ccncc2)c2ccccc12` (centres unmarked) [SR-27891]: 200 nM.
The same measure, in the same setting: as for `c1ccc(OCCNc2nnc(Cc3ccncc3)c3ccccc23)cc1` [SR-27892], the figure is 500 nM; as for `O=S(=O)(c1ccc(Nc2nc(-c3ccncc3)cs2)cc1)N1CCCC1` [SR-28544], 350 nM.
The same measure, in the same setting: as for `Cc1nc(C)c(-c2csc(Nc3ccc(S(=O)(=O)N4CCCC4)cc3)n2)s1` [SR-28545], the figure is over 500 nM; as for `O=S(=O)(c1ccc(Nc2nc(-c3ccncc3)cs2)cc1)N1CCCCC1` [SR-28546], 400 nM.
In the case of `Cc1nc(C)c(-c2csc(Nc3ccc(S(=O)(=O)N4CCCCC4)cc3)n2)s1` [SR-28547], the EC50 was over 500 nM.
In the case of `O=S(=O)(c1ccc(Nc2nc(-c3ccncc3)cs2)cc1)N1CCOCC1` [SR-28548], the EC50 came to 170 nM.
Regarding `Cc1nc(C)c(-c2csc(Nc3ccc(S(=O)(=O)N4CCOCC4)cc3)n2)s1` [SR-28549], the EC50 stood at 400 nM.
Same read-out and setting: as for `NS(=O)(=O)c1ccc(Nc2nc(-c3ccncc3)c(CO)s2)cc1` [SR-28550], the figure is 60 nM; as for `Cc1nc(C)c(-c2nc(Nc3ccc(S(N)(=O)=O)cc3)sc2CO)s1` [SR-28551], 300 nM.
Regarding `Cc1nc(N)sc1-c1csc(Nc2ccc(S(N)(=O)=O)cc2)n1` [SR-28552], the 50% effective concentration (EC50) was found to be 160 nM.
Still for that read-out and setting: next, `O=S(=O)(Nc1ccccc1)c1ccc(Nc2nc(-c3ccncc3)cs2)cc1` [SR-29444]: over 500 nM.
The same measure, in the same setting: as for `Cc1nc(C)c(-c2csc(Nc3ccc(S(=O)(=O)Nc4ccccc4)cc3)n2)s1` [SR-29445], the figure is over 500 nM.
As for `Cc1ccc(NS(=O)(=O)c2ccc(Nc3nc(-c4ccncc4)cs3)cc2)cc1` [SR-29446], the EC50 is over 500 nM.
`Cc1ccc(NS(=O)(=O)c2ccc(Nc3nc(-c4sc(C)nc4C)cs3)cc2)cc1` [SR-29447]: the EC50 was over 500 nM.
With `O=S(=O)(Nc1ccc(F)cc1)c1ccc(Nc2nc(-c3ccncc3)cs2)cc1` [SR-29448], the EC50 was over 500 nM.
On the same count and under the same terms, next, `Cc1nc(C)c(-c2csc(Nc3ccc(S(=O)(=O)Nc4ccc(F)cc4)cc3)n2)s1` [SR-29449]: over 500 nM.
On the same count and under the same terms, as for `NS(=O)(=O)c1ccc(Nc2nc(-c3ccc(S(N)(=O)=O)cc3)cs2)cc1` [SR-29450], the figure is 15 nM; as for `CNS(=O)(=O)c1ccc(Nc2nc(-c3ccc(S(N)(=O)=O)cc3)cs2)cc1` [SR-29451], 20 nM; as for `CC(O)c1cccc(Nc2nnc(Cc3ccncc3)c3ccccc23)c1` (centres unmarked) [SR-29684], 2 nM.
In the case of `c1ccc2c(NCC3CCCO3)nnc(Cc3ccncc3)c2c1` (centres unmarked) [SR-30004], the EC50 turned out to be 45 nM.
Take `c1coc(CNc2nnc(Cc3ccncc3)c3ccccc23)c1` [SR-30005]: the half-maximal effective concentration (EC50) amounted to 15 nM.
As for `c1ccc2[nH]c(CNc3nnc(Cc4ccncc4)c4ccccc34)cc2c1` [SR-30006], the EC50 turned out to be 30 nM.
The same measure, in the same setting: as for `c1ccc2c(NCC3CCOCC3)nnc(Cc3ccncc3)c2c1` [SR-30008], the figure is 8 nM.
Take `c1ccc2oc(Nc3nnc(Cc4ccncc4)c4ccccc34)nc2c1` [SR-30010]: the EC50 was 2 nM.
The same measure, in the same setting: as for `c1ccc2oc(CNc3nnc(Cc4ccncc4)c4ccccc34)cc2c1` [SR-30011], the figure is 2 nM; as for `CC1(c2cccc(Nc3nnc(Cc4ccncc4)c4ccccc34)c2)OCCO1` [SR-30012], 2 nM.
In the case of `C/C(=N\O)c1cccc(Nc2nnc(Cc3ccncc3)c3ccccc23)c1` [SR-30013], the EC50 worked out at 2 nM.
Consider `CO/N=C(\C)c1cccc(Nc2nnc(Cc3ccncc3)c3ccccc23)c1` [SR-30014], for which the EC50 is 2 nM.
The same measure, in the same setting: next, `c1ccc2c(c1)CC(CNc1nnc(Cc3ccncc3)c3ccccc13)O2` (centres unmarked) [SR-30024]: 8 nM.

The EC50 is the concentration giving half of the maximal effect.
